This is an account of results in patent publication US20050181947A1, “Fungicidal seed treatment agent for oilseed rape” (BASF Agro BV., Amhem (NL)-Wadenswil-Branch, priority 2002, published 2005).

Test [1] deals with Brassica napus (winter rape, species Bristol). Nature of the test: Field trial of treated oilseed rape seed: plant biomass (determining the weight). It counts as in vivo. The settings on record: for Plant biomass (% - relative to untreated): standard treatment agent, rate not given, winter rape Bristol, untreated = 100. How it is done:
(§1) The seed treated in accordance with the production examples described above was tested in field trials at a sowing rate of 4 kg per hectare. The individual test parameters were evaluated using the methods usually used in practice in each case, such as determining the weight for plant biomass and grading in the event of fungal infestation.
(§2) The increase in the plant biomass and the suppression of fungal infestation in both the exemplary embodiments of treatment of oilseed rape seed with fluquinconazole is higher compared with the untreated control and compared with the active substance dimethomorph which was co-tested as a reference and is used as the standard treatment agent in oilseed rape for protection against downy mildew.

A further test deals with downy mildew. Nature of the test: Field trial of treated oilseed rape seed: foliar infestation with downy mildew (grading). It counts as in vivo, Brassica napus. The settings on record: 24 days after sowing; standard treatment agent, rate not given; winter rape Bristol; untreated = 15. How it is done: as §1, §2
Test [2] deals with Fungal infestation of the leaves. Nature of the test: Field trial of treated oilseed rape seed: fungal infestation of the leaves (grading). It counts as in vivo, Brassica napus. Here is the method: as §1, §2
Test [3] relates to Brassica napus (winter rape, species Express). Nature of the test: Field trial of treated oilseed rape seed: yield. The settings on record: seed treatment; independent of the site. It counts as in vivo. How it is done:
as §1
The yield after a period of vegetation is higher after treatment of the oilseed rape seed with fluquinconazole compared with the untreated control. This effect is independent of the site.

Setting [4] is: seed treatment, both exemplary embodiments.

As for `COc1ccc(C(=CC(=O)N2CCOCC2)c2ccc(Cl)cc2)cc1OC` [Dimethomorph], the figures for the “Plant biomass (% - relative to untreated)” value in test [1] (24 days after sowing) and in test [1] (41 days after sowing) were 105% and 102%, respectively. In addition, the “Foliar infestation with downy mildew (% total infestation)” value with downy mildew was 5 % total infestation. In addition, the “Fungal infestation of the leaves (% total infestation)” value in test [2] (41 days after sowing, standard treatment agent, rate not given, winter rape Bristol, untreated = 30) is 25 % total infestation.
As to `O=c1c2cc(F)ccc2nc(-n2cncn2)n1-c1ccc(Cl)cc1Cl` [fluquinconazole, 3-(2,4-dichlorophenyl)-6-fluoro-2-(1H-1,2,4-triazol-1-yl)-quinazolin-4(3H)-one], the “Increase in the plant biomass compared with the untreated control and with dimethomorph” value in test [1] (setting [4]) is given as “higher”. For the same compound, the “Yield after a period of vegetation compared with the untreated control” value in test [3] was “higher”. Moreover, in test [2] (setting [4]), the “Suppression of fungal infestation compared with the untreated control and with dimethomorph” value is reported as “higher”.
